Each structure is given as a SMILES string.

human PRMT5 complex enzyme, sequence (O14744 whole entry): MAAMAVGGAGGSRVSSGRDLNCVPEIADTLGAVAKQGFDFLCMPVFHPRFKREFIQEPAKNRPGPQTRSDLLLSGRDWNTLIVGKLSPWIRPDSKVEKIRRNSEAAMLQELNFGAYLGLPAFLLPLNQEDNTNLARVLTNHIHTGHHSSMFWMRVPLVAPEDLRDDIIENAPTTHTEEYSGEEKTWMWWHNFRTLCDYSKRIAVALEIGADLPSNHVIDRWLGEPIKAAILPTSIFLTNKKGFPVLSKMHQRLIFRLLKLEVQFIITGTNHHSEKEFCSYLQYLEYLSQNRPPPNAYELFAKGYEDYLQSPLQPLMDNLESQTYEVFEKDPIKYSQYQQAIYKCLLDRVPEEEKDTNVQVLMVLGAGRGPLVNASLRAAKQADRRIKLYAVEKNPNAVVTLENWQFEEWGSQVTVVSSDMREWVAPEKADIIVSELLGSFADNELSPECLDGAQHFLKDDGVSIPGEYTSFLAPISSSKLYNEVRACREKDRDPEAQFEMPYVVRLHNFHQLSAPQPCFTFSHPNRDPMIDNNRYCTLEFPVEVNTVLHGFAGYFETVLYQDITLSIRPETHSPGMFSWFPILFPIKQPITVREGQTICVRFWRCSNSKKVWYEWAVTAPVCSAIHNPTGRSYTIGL
human PRMT5 complex enzyme, sequence (Q9BQA1 whole entry partner): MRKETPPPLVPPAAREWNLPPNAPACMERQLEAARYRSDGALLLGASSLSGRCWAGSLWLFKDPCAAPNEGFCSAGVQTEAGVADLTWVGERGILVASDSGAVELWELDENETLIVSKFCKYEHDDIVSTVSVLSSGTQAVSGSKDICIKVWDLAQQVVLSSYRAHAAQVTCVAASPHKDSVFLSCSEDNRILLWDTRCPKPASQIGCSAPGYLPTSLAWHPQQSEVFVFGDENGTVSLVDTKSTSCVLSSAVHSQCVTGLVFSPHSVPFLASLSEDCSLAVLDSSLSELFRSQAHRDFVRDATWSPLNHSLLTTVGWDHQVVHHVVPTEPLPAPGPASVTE

One data set concerns the target human PRMT5 complex enzyme (Homo sapiens, UniProt O14744). The experiment in a line: PRMT5 inhibition study ([3H]SAM / Histone H4 methylation, filter scintillation counting). In kind it is biochemical. The settings on record: 30 μM test compound; 120 min at 22° C.; 600 nM [3H]SAM, 250 nM Histone H4 full length; percent inhibition of the control enzyme activity. How it is done:
The test compound, reference compound, or water (control) were incubated for 120 min at 22° C. with about 200 ng human PRMT5 complex enzyme, 600 nM [^3H]SAM and 250 nM Histone H4 full length in a buffer containing 45 mM Tris-HCl (pH 9), 45 mM NaCl, 4.5 mM MgCl2 and 3.6 mM DTT (Dithiothreitol).
For control basal measurements, the enzyme was omitted from the reaction mixture. Following incubation, the reaction was stopped by adding 33 mM citric acid and the samples were filtered rapidly in vacuo through glass fiber filters (GF/B, Packard) presoaked with 33 mM citric acid and rinsed several times with ice-cold 33 mM citric acid using a 96-sample cell harvester (Unifilter, Packard). The filters were dried then counted for radioactivity in a scintillation counter (Topcount, Packard) using a scintillation cocktail (Microscint 0, Packard).
The results were expressed as a percent inhibition of the control enzyme activity.
Turning to `Nc1ncnc2c1ncn2[C@@H]1O[C@]2(C[C@H](O)C2)[C@@H](O)[C@H]1O`, the inhibition at 30 µM amounted to 37.7%.

As to `Nc1ncnc2c1ncn2[C@@H]1O[C@]2(C[C@@H](O)C2)[C@@H](O)[C@H]1O`, the inhibition at 30 µM was 70.3%.

As to `Nc1ncnc2c1ccn2[C@@H]1C[C@]2(C[C@H](Cc3cccnc3)C2)[C@@H](O)[C@H]1O`, the inhibition at 30 µM was 100%.

Turning to `Nc1ncnc2c1ccn2[C@@H]1C[C@]2(C[C@@H](Cc3cccnc3)C2)[C@@H](O)[C@H]1O`, the inhibition at 30 µM was determined as 99.8%.

With `Nc1ncnc2c1ccn2[C@@H]1C[C@]2(C[C@@H](Cc3ccn4ccnc4c3)C2)[C@@H](O)[C@H]1O`, the inhibition at 30 µM was 102%.

In the case of `CCCN[C@H]1C[C@]2(C[C@@H](n3cnc4c(N)ncnc43)[C@H](O)[C@@H]2O)C1`, the inhibition at 30 µM was 69.8%.

Regarding `Nc1ncnc2c1ccn2[C@@H]1O[C@]2(C[C@@H](N)C2)[C@@H](O)[C@H]1O`, the inhibition at 30 µM amounted to 46.3%.

`CCCN[C@H]1C[C@]2(C1)O[C@@H](n1cnc3c(N)ncnc31)[C@H](O)[C@@H]2O`: the inhibition at 30 µM worked out at 33.8%.

Consider `Nc1ncnc2c1ncn2[C@@H]1O[C@@]2(CC[C@H]2O)C(O)C1O` (stereo partly drawn), for which the inhibition at 30 µM is 98%.

For `Nc1ncnc2c1ncn2[C@@H]1O[C@@]2(CC[C@@H]2O)C(O)C1O` (stereo partly drawn), the inhibition at 30 µM worked out at 42%.

Consider `NC[C@H]1C[C@]12O[C@@H](n1cnc3c(N)ncnc31)C(O)C2O` (stereo partly drawn), for which the inhibition at 30 µM was 79%.

As for `CCCN(C)C[C@H]1C[C@]12O[C@@H](n1cnc3c(N)ncnc31)C(O)C2O` (stereo partly drawn), the inhibition at 30 µM stood at 16%.

With `CCCNC[C@H]1C[C@]12O[C@@H](n1cnc3c(N)ncnc31)C(O)C2O` (stereo partly drawn), the inhibition at 30 µM came to 39%.

For the compound `Nc1ncnc2c1ncn2[C@@H]1O[C@@]2(C[C@H]2O)C(O)C1O` (stereo partly drawn), the inhibition at 30 µM was 72%.

Regarding `Nc1ncnc2c1ncn2[C@@H]1O[C@@]2(C[C@@H]2CO)C(O)C1O` (stereo partly drawn), the inhibition at 30 µM stood at 29%.

`Nc1ncnc2c1ncn2[C@@H]1O[C@]2(C[C@@H]2CO)C(O)C1O` (stereo partly drawn): the inhibition at 30 µM was found to be 84%.

As to `Nc1ncnc2c1ncn2[C@@H]1O[C@]2(C[C@H]2CO)C(O)C1O` (stereo partly drawn), the inhibition at 30 µM was determined as 31%.

Take `Nc1ncnc2c1ncn2[C@@H]1O[C@@]2(C[C@H]2CO)C(O)C1O` (stereo partly drawn) [drawing 332]: the inhibition at 30 µM worked out at 36.4%.

With `Nc1ncnc2c1ncn2[C@@H]1O[C@@]2(C[C@H]2CO)C(O)C1O` (stereo partly drawn) [drawing 333], the “% PRMT5 inhibition at 30 μM” value is 55.9%.

Tested on in the next data set: not given
Experiment: not given
Conditions: not given
The compound `C=C1O[C@@H]2OC(C)(C)O[C@@H]2[C@@H]1OCc1ccc2ccccc2c1` [Compound 66.2] yielded a melting point of 102.01 °C.

For the compound `CC1(C)O[C@H]2OC3(CC(=O)C3)[C@@H](OCc3ccc4ccccc4c3)[C@H]2O1` [Compound 66.4], the melting point worked out at 101.79 °C.

As usually defined, the inhibition is the change of the read-out against control, counted positive when it falls. The melting point is the temperature of the solid-liquid transition.

For the origin of these results see patent US20220275018A1, “NOVEL SPIROBICYCLIC INTERMEDIATES” (Janssen Pharmaceutica NV, priority 2019, published 2022).
